# Experimental data: patent US11174253B2, “Compound and pharmaceutical composition containing the same” (ALPHALA CO., LTD., priority 2017, dated 2021)
# Test system: hepatocellular carcinoma cell line Hep3B
# Assay: Growth inhibition of Hep3B cells, 48 hr treatment, Hoechst 33342 nucleus count (GE InCell 2200)
# Format: cell-based
# Conditions: Homo sapiens, Table 6, ratio of number of tumor cells treated with 10 μM compound to non-treated cells
# Procedure, shortened: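 Compound exposure lasted 48 hr at 37° C, 5% CO2. Surviving nuclei were counted after Hoechst 33342 staining, and survival was expressed as the treated/non-treated cell number ratio, including the ratio at 10 μM compound.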
row,SMILES,viability at 10 µM
1,"CCCOc1ccc(-c2nc(NC(=O)c3ccc([N+](=O)[O-])s3)sc2C(=O)N2CCN(C)CC2)cc1 [Compound 6-30, N-(5-(4-methylpiperazine-1-carbonyl)-4-(4-propoxyphenyl)thiazol-2-yl)-5-nitrothiophene-2-carboxamide]",58%
2,"CCCOc1ccc(-c2nc(NC(=O)c3ccc([N+](=O)[O-])s3)sc2C(=O)Nc2ccc(F)cc2F)cc1 [Compound 6-31, N-(2,4-difluorophenyl)-2-(5-nitrothiophene-2-carboxamido)-4-(4-propoxyphenyl)thiazole-5-carboxamide]",61%
3,"Cc1ccc(-c2nc(NC(=O)c3ccc([N+](=O)[O-])o3)sc2-c2ccc(Br)cc2)cc1 [Compound 6-32, N-(5-(4-bromophenyl)-4-(p-tolyl)thiazol-2-yl)-5-nitrofuran-2-carboxamide]",27%
4,"CCOc1ccc(-c2nc(NC(=O)c3ccc([N+](=O)[O-])o3)sc2Cc2ccccc2)cc1 [Compound 6-33, N-(5-benzyl-4-(4-ethoxyphenyl)thiazol-2-yl)-5-nitrofuran-2-carboxamide]",27%
5,"CCOc1ccc(-c2nc(NC(=O)c3ccc([N+](=O)[O-])s3)sc2Cc2ccc(F)cc2)cc1 [Compound 6-35, N-(4-(4-ethoxyphenyl)-5-(4-fluorobenzyl)thiazol-2-yl)-5-nitrothiophene-2-carboxamide]",47%
6,"CCOc1ccc(-c2nc(NC(=O)c3ccc([N+](=O)[O-])s3)sc2Cc2cccc(F)c2)cc1 [Compound 6-36, N-(4-(4-ethoxyphenyl)-5-(3-fluorobenzyl)thiazol-2-yl)-5-nitrothiophene-2-carboxamide]",41%
7,"CC(C)(C)c1ccc(-c2nc(NC(=O)c3ccc([N+](=O)[O-])s3)sc2Cc2ccc(F)cc2)cc1 [Compound 6-37, N-(4-(4-(tert-butyl)phenyl)-5-(4-fluorobenzyl)thiazol-2-yl)-5-nitrothiophene-2-carboxamide]",39%
8,"CC(C)(C)c1ccc(-c2nc(NC(=O)c3ccc([N+](=O)[O-])s3)sc2-c2ccc(F)cc2F)cc1 [Compound 6-39, N-(4-(4-(tert-butyl)phenyl)-5-(2,4-difluorophenyl)thiazol-2-yl)-5-nitrothiophene-2-carboxamide]",31%
9,"CC(C)(C)c1ccc(-c2nc(NC(=O)c3ccc([N+](=O)[O-])s3)sc2-c2cccc(F)c2)cc1 [Compound 6-41, N-(4-(4-(tert-butyl)phenyl)-5-(3-fluorophenyl)thiazol-2-yl)-5-nitrothiophene-2-carboxamide]",36%
10,"CCOC(=O)c1sc(NC(=O)c2ccc([N+](=O)[O-])s2)nc1-c1ccc(C(C)(C)C)cc1 [Compound 6-42, ethyl 4-(4-(tert-butyl)phenyl)-2-(5-nitrothiophene-2-carboxamido)thiazole-5-carboxylate]",49%
11,"CN1CCN(C(=O)c2sc(NC(=O)c3ccc([N+](=O)[O-])s3)nc2-c2ccc(C(C)(C)C)cc2)CC1 [Compound 6-43, N-(4-(4-(tert-butyl)phenyl)-5-(4-methylpiperazine-1-carbonyl)thiazol-2-yl)-5-nitrothiophene-2-carboxamide]",38%
12,"CC(C)(C)c1ccc(-c2nc(NC(=O)c3ccc([N+](=O)[O-])s3)sc2C(=O)NC2CC2)cc1 [Compound 6-44, 4-(4-(tert-butyl)phenyl)-N-cyclopropyl-2-(5-nitrothiophene-2-carboxamido)thiazole-5-carboxamide]",81%
13,"CC(C)(C)c1ccc(-c2nc(NC(=O)c3ccc([N+](=O)[O-])s3)sc2-c2ccccc2F)cc1 [Compound 6-48, N-(4-(4-(tert-butyl)phenyl)-5-(2-fluorophenyl)thiazol-2-yl)-5-nitrothiophene-2-carboxamide]",45%
14,"CC(C)(C)c1ccc(-c2nc(NC(=O)c3ccc([N+](=O)[O-])s3)sc2C(=O)N2CCOCC2)cc1 [Compound 6-49, N-(4-(4-(tert-butyl)phenyl)-5-(morpholine-4-carbonyl)thiazol-2-yl)-5-nitrothiophene-2-carboxamide]",57%
